Source: patent publication US20230220047A1, “PEPTIDES FOR TREATMENT OF SEPSIS AND CANCER” (NORWEGIAN UNIVERSITY OF SCIENCE AND TECHNOLOGY (NTNU), priority 2020, published 2023)
“Also recorded” adds a separate entry of the source.

Key:
TLR4 [1] = experiment: qPCR of TLR4-mediated cytokine expression in B6 immortalised murine macrophages; format: cell-based, mouse; settings: 10 μM, 1 h pre-treatment, LPS 100 ng/ml
Experimental: Cells were pre-treated with 10 μM peptides in cell culture media for 1 h, and stimulated with LPS (100 ng/ml) for increasing lengths of time.
Immortalized bone-derived-macrophages (iBMDM) from wild type, Tram−/− or TIr4−/− C57BL/6 mice were maintained at 37° C. and 5% CO2 in DMEM supplemented with 10% FCS.
(§1) Total RNA was isolated from the cells using Qiazol reagent #79306 from QIAGEN, and chloroform extraction followed by purification on RNeasy Mini columns with DNAse digestion (Qiagen). cDNA was prepared using the Maxima First Strand cDNA Synthesis Kit for quantitative real-time polymerase chain reaction (RT-qPCR) (Thermo Fisher Scientific) according to the manufacturer's protocol. qPCR was performed using the PerfeCTa qPCR FastMix (Quanta Biosciences) in replicates and cycled in a StepOnePlus™ Real-Time PCR cycler. The following TaqMan® Gene Expression Assays (Applied Biosystems®) were used: IFNβ (Hs01077958_s1), TNF (Hs00174128_m1), TBP (Hs00427620_m1), CXCL10 (Hs01124251_g1), IL-6 (Hs00174131_m1) and IL-1β (Hs01555410_m1), for human cells; Ifnβ (Mm00439552_s1), Tnf (Mm00443258_m1), Tbp (Mm01277042_m1) and II-1β (Mm00434228_m1), for mouse cells. No RT controls were negative. The level of TBP mRNA was used for normalisation and results presented as relative expression compared to the control untreated sample. Relative expression was calculated using Pfaffl's mathematical model (Pfaffl, Nucleic Acids Research 29(9): e45, 2001). Results are presented as the mean and SD expression fold change for biological replicates relative to non-stimulated cells. Statistical significance was evaluated in GraphPad Prizm 5.03. Data distribution was assumed to be normal but this was not formally tested. The difference between the two groups was determined by two-tailed t test.
We proceeded with cellular assays to address the effect of peptide pre-treatment on TLR4-mediated cytokine expression in B6 immortalised murine macrophages (FIG. 13). Tested peptides had no cytotoxic effect on B6 murine macrophages (FIG. 13A).

TLR4 [2] = experiment: ELISA/Bioplex of LPS-mediated cytokine secretion by THP-1 cells; format: cell-based, human; settings: for LPS-mediated secretion of IL-18, IL-6, IL-8 and TNF (27-plex Bioplex): 10 μM
Experimental: (A) Results of LDH assay and ELISAs analysing cytokine secretion after 5 h of stimulation with LPS (graphs show mean values for at least 3 biological replicates). […] In the tables average values are presented based on 3-5 biological replicates for each experiment. […]
TNF in supernatants was detected using a human TNF-alpha DuoSet ELISA (DY210) (R&D Systems); CXCL10 using a DuoSet ELISA (DY266) (R&D Systems); IL-1β using a BD OptEiA human IL-1β ELISA SetII (#557953, BD Biosciences): IFNβ using a VeriKine-HS™ Human Interferon-Beta Serum ELISA Kit (#41415) from PBL Assay Science. Some supernatants were also analysed by multiplex cytokine assay (Bio-Plex; Bio-Rad Laboratories Inc.) for IL-1β, IL-6, IL-8, CXCL10/IP-10. Results are presented as mean and SD for biological replicates for a representative donor (primary human macrophages), or at least three independent experiments for the model cell line THP-1. Statistical significance was evaluated in GraphPad Prizm 5.03. Data distribution was assumed to be normal but this was not formally tested. The difference between the two groups was determined by two-tailed t test.

TLR4 [3] = experiment: qPCR of LPS-mediated cytokine mRNA expression in THP-1 macrophages; format: cell-based, human; settings: for IFNβ and CXCL10 mRNA expression: 30 min pre-treatment, LPS
Experimental: SW480 (ATCC CCL-228) and Jurkat (ATCC Clone E6-1; TIB-152) cells were cultured in RPMI 1640 (Sigma-Aldrich, Schnelldorf, Germany) supplemented with 10% heat-inactivated FCS, penicillin/streptomycin (Life Technologies) and 20 mM L-Glutamine. THP-1 cells (ATCC TIB-202) were cultured in RPMI-1640 (high-glucose, ATCC) supplemented with 10% heat inactivated foetal calf serum (FCS), 100 nM penicillin/streptomycin and 5 μM β-mercaptoethanol (Sigma). THP-1 cells were differentiated with 60 ng/ml phorbol 12-myristate 13-acetate (PMA, Sigma) for 72 h, followed by 24 or 48 h in medium without PMA.
as §1

E. coli particles = experiment: Whole blood assay, E. coli particle stimulation; format: cell-based, human
TLR8 = experiment: Whole blood assay, CL075 stimulation; format: cell-based, human
Excerpt: […] Results are for at least 6 donors. The Wilcoxon matched-pairs signed rank test was used for statistical analysis between 2 groups in Prizm 8.2.1. In each graph, circles indicate whole blood pre-treated with water, squares indicate blood pre-treated with control peptide (average for treatment with Pen and C3-Pen), and triangles indicate pre-treatment with P7-Pen.
To evaluate the effect of peptides in an ex vivo system, a human whole blood model was used. Peripheral venous blood was drawn from 6 healthy donors into sterile polypropylene tubes (Thermo Scientific™ Nunc™ Biobanking and Cell Culture Cryogenic Tubes) containing the anti-coagulant Lepirudin (Refludan®; Celgene). Peptide solutions were made by diluting peptide stocks in DPBS (Dulbecco's Phosphate Buffered Saline with MgCl2 and CaCl2; Sigma-Aldrich) to obtain a final concentration of 140 μM. Peptide solution or DPBS was distributed in equal volume (50 μL) to 1.8 mL sterile polypropylene tubes (Thermo Scientific™Nunc™ Biobanking and Cell Culture Cryogenic Tubes). 250 μL whole blood was then added to the 1.8 mL tubes containing peptide solution or DPBS, and incubated at 37° C. under constant rotation for 1 h (concentration of peptides for pre-incubation: 23.3 μM). Stimulation solutions were made by diluting K12 LPS or CL075 in DPBS to obtain a final concentration in whole blood of 100 ng/mL (LPS) or 1 μg/mL (CL075) after addition of 50 μL stimulation solution or DPBS. Concentration of peptides in whole blood samples was reduced by this to 20 μM. Tubes were incubated at 37° C. under constant rotation for 4 h. Finally, plasma was isolated from the whole blood specimens by centrifugation, collected in 96 well plates (Corning® 96 Well CellBIND® Microplates), and stored at −20/−80° C. until analysis by multiplex/27-plex cytokine assay or IFNβ ELISA (VeriKine-HS Human Interferon Beta Serum ELISA Kit; pbl Assay Science).

Substance | TLR4-mediated Ifnβ, Tnf and Il-1β mRNA expression (TLR4 [1]) | inhibitory activity towards LPS-induced CXCL10, TNF and IL-1β secretion (ELISA) (TLR4 [2]; 15 μM, 30 min pre-treatment, LPS 100 ng/ml 5 h, relative to P7-Pen) | IFNβ and CXCL10 mRNA expression (TLR4 [3]; 10 μM) | E. coli-mediated IFNβ secretion (E. coli particles; 20 μM, 4 h) | E. coli-mediated IL-1β secretion (E. coli particles; 20 μM, 4 h) | E. coli-mediated TNF production (E. coli particles; 20 μM, 4 h) | E. coli-mediated IL-6 (E. coli particles; 20 μM, 4 h, not statistically significant) | inhibition of CXCL10 secretion (TLR4 [2]; 10 μM applied 30 min before or simultaneously with LPS, LPS 6 h) | inhibitory effect on CXCL10 secretion (TLR4 [2]; 10 μM applied 1 h after addition of LPS) | LPS-mediated secretion of IL-18, IL-6, IL-8 and TNF (27-plex Bioplex) (TLR4 [2]; 30 min pre-treatment) | TLR8-mediated pro-inflammatory cytokine secretion (TLR8; 20 μM, CL075) | TLR8-mediated IFNβ release/secretion by whole blood cells (TLR8; 20 μM, CL075 1 μg/ml 4 h) | LPS-mediated IFNβ, CXCL10 and TNF expression (TLR4 [3]; 10 μM, 1 h pre-treatment, LPS 100 ng/ml) | expression of IFNβ, CXCL10 and TNF mRNA (TLR4 [3]; 20 μM, 1 h pre-treatment, LPS 100 ng/ml) | LPS-induced cytokine expression levels (IFNβ, TNF and CXCL10 mRNA) (TLR4 [3]; peptide removed from media after pre-treatment, before LPS stimulation (data not shown)) | E. coli-mediated IFNβ secretion by whole blood cells (E. coli particles; pilot assay, 10 μM, E. coli particles) | LPS-mediated TNF secretion (ELISA) (TLR4 [2]; not shown) | CL075-mediated IFNβ secretion by whole blood cells (TLR8; pilot assay, 10 μM, CL075 1 μg/ml)
Ac-ITVAASVTLTGRQIKIWFQNRRMKWKK-NH2 [Peptide P7-A4-Pen] | strongly inhibited | least effect on peptide activity |  |  |  |  |  |  |  |  |  |  |  |  |  |  |  | 
Ac-ITVYASVTLTGRQIKIWFQNRRMKWKK-NH2 [Peptide P7-Pen] | strongly inhibited |  | reduced | significantly inhibiting | no significant effect | Significant inhibition | a degree of inhibition | very effective | reduced | inhibitory effect | no significant effect | effectively abrogated; also recorded: inhibited |  |  |  |  |  | 
Ac-ITVYASVTLTGRRRRRRRRRRR-NH2 [Peptide P7-Arg11] |  |  | reduced |  |  |  |  |  |  | inhibitory effect |  |  | clear inhibitory effect | totally inhibited | No changes | inhibited | prevented TNF secretion | inhibited
